Results: patent publication US20020137929A1, “1 - (3-heterocyclylphenyl) isothiourea, -isourea, -guanidine and -amidine herbicidal agents” (Intellectual Property Department, BASF Aktiengesellschaft, priority 1998, published 2002)

Key:
CYPIR (Rice Flatsedge) [1] = experiment: Preemergence weed control under flooded paddy conditions; type: in vivo, Cyperus iria; conditions: rated 3-4 weeks after treatment
How it was run: (§1)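 Silt loam, seeds in top 0.5 cm; flood held 1.5-3 cm; test cpd as acetone/water 50/50 into flood water, ~0.0313-0.500 kg/ha a.i.; greenhouse 3-4 wk; visual 0-9 score vs control.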

SETVI (Foxtail, Green) [2] = experiment: Postemergence herbicidal evaluation; type: in vivo, Setaria viridis; conditions: postemergence
How it was run: (§2)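 First, seedlings were raised for around two weeks. Next, test material in 50/50 acetone/water containing 0.5% TWEEN 20 was sprayed through a nozzle at 40 psi, equivalent to about 0.0156–0.500 kg/ha. Finally, after 4–5 weeks in the greenhouse, plants were rated 0–9.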

[3] = test system: SAGPY (Arrowhead (Pygmaea)); experiment: Postemergence weed control under flooded paddy conditions; type: in vivo, Sagittaria pygmaea; conditions: postemergence weeds, rated 3 to 4 weeks after treatment
How it was run: (§3)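 With weeds 3 to 5 cm tall and rice at the 1.5 to 2.5 leaf stage, containers were flooded and water held 1.5 to 3 cm above soil. Compounds in 50/50 v/v aqueous/acetone went into the flood water at about 0.0313 to 0.500 kg/ha a.i. Effects were visually rated 0–9 against controls after three to four weeks in the greenhouse.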

ZEAMX (Corn, Field) [4] = experiment: Preemergence herbicidal evaluation; type: in vivo, Zea mays; conditions: preemergence, rated 4-5 weeks after treatment, 0-9 scale
How it was run: (§4)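 Seeds were mixed with potting soil and planted on about one inch of soil, then sprayed with test compound in aqueous acetone at about 0.0156 to 0.500 kg per hectare. Plants grew under standard greenhouse care and were visually rated 0-9 against untreated controls 4-5 weeks post-treatment.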

[5] = test system: ECHORC (Watergrass (Calif.)); experiment: Postemergence weed control under flooded paddy conditions; type: in vivo, Echinochloa oryzoides; conditions: postemergence weeds, rated 3 to 4 weeks after treatment
How it was run: as §3

CYPSE (Flatsedge) [6] = experiment: Preemergence weed control under flooded paddy conditions; type: in vivo, Cyperus serotinus; conditions: rated 3-4 weeks after treatment
How it was run: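 Herbicidal effect is scored visually on a 0-9 scale against an untreated control, three to four weeks after compounds are pipetted into the flood water (1.5 to 3 cm deep) over seeds planted in silt loam at 0.5 cm depth. Rates: about 0.0313 to 0.500 kg/ha.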

[7] = test system: ECHORC (Watergrass (Calif.)); experiment: as above; type: in vivo, Echinochloa oryzoides; conditions: rated 3-4 weeks after treatment
How it was run: as §1

SETVI (Foxtail, Green) [8] = experiment: Preemergence herbicidal evaluation; type: in vivo, Setaria viridis; conditions: preemergence, rated 4-5 weeks after treatment, 0-9 scale
How it was run: as §4

[9] = test system: TRZAWR (Wheat, Winter, cv Riband); experiment: Preemergence herbicidal evaluation; type: in vivo, Triticum aestivum; conditions: preemergence, rated 4-5 weeks after treatment, 0-9 scale
How it was run: as §4

CYPIR (Rice Flatsedge) [10] = experiment: Postemergence weed control under flooded paddy conditions; type: in vivo, Cyperus iria; conditions: postemergence weeds, rated 3 to 4 weeks after treatment
How it was run: as §3

CYPSE (Flatsedge) [11] = experiment: as above; type: in vivo, Cyperus serotinus; conditions: postemergence weeds, rated 3 to 4 weeks after treatment
How it was run: as §3

ORYSAT (Rice, Tebonnet) = experiment: Postemergence herbicidal evaluation; type: in vivo, Oryza sativa, (L.) Tebonnet; conditions: postemergence
How it was run: as §2

ZEAMX (Corn, Field) [12] = experiment: Postemergence herbicidal evaluation; type: in vivo, Zea mays; conditions: postemergence
How it was run: as §2

ECHCG (Barnyardgrass) = experiment: Preemergence herbicidal evaluation; type: in vivo, Echinochloa crus-galli; conditions: preemergence, rated 4-5 weeks after treatment, 0-9 scale
How it was run: as §4

SMILES: CC(C)OC(=O)CC1SC(=Nc2cc(-n3c(=O)cc(C(F)(F)F)n(C)c3=O)c(F)cc2Cl)N(C)C1=O (stereo not shown) [Compound 89, Isopropyl 2-{{2-chloro-5-[3,6-dihydro-3-methyl-2,6-dioxo-4-(trifluoromethyl)-1(2H)-pyrimidinyl]-4-fluorophenyl}imino}-3-methyl-4-oxo-5-thiazolidineacetate]
- CYPIR herbicidal effect rating (CYPIR (Rice Flatsedge) [1]; 0.0313 kg/ha): 0.0
- CYPIR herbicidal effect rating (CYPIR (Rice Flatsedge) [1]; 0.0625 kg/ha): 0.0
- CYPIR herbicidal effect rating (CYPIR (Rice Flatsedge) [1]; 0.1250 kg/ha): 2.0
- CYPIR herbicidal effect rating (CYPIR (Rice Flatsedge) [1]; 0.2500 kg/ha): 4.0
- SETVI herbicidal rating (SETVI (Foxtail, Green) [2]; rate 0.0158 kg/ha): 7.0
- SETVI herbicidal rating (SETVI (Foxtail, Green) [2]; rate 0.0313 kg/ha): 9.0
- SETVI herbicidal rating (SETVI (Foxtail, Green) [2]; rate 0.0625 kg/ha): 9.0
- SETVI herbicidal rating (SETVI (Foxtail, Green) [2]; rate 0.1250 kg/ha): 9.0
- Herbicidal rating SAGPY ([3]; Rate 0.0313 kg/ha): 4.0
- Herbicidal rating SAGPY ([3]; Rate 0.0625 kg/ha): 5.0
- Herbicidal rating SAGPY ([3]; Rate 0.1250 kg/ha): 9.0
- Herbicidal rating SAGPY ([3]; Rate 0.2500 kg/ha): 9.0
- ZEAMX rating (ZEAMX (Corn, Field) [4]; 0.0156 kg/ha): 0.0
- ZEAMX rating (ZEAMX (Corn, Field) [4]; 0.0313 kg/ha): 0.0
- ZEAMX rating (ZEAMX (Corn, Field) [4]; 0.0625 kg/ha): 1.0
- ZEAMX rating (ZEAMX (Corn, Field) [4]; 0.1250 kg/ha): 6.5
- ZEAMX rating (ZEAMX (Corn, Field) [4]; 0.2500 kg/ha): 7.5
- ZEAMX rating (ZEAMX (Corn, Field) [4]; 0.5000 kg/ha): 9.0
- Herbicidal rating ECHORC ([5]; Rate 0.0313 kg/ha): 3.0
- Herbicidal rating ECHORC ([5]; Rate 0.0625 kg/ha): 4.0
- Herbicidal rating ECHORC ([5]; Rate 0.1250 kg/ha): 5.0
- Herbicidal rating ECHORC ([5]; Rate 0.2500 kg/ha): 6.0
- CYPSE herbicidal effect rating (CYPSE (Flatsedge) [6]; 0.0313 kg/ha): 0.0
- CYPSE herbicidal effect rating (CYPSE (Flatsedge) [6]; 0.0625 kg/ha): 0.0
- CYPSE herbicidal effect rating (CYPSE (Flatsedge) [6]; 0.1250 kg/ha): 4.0
- CYPSE herbicidal effect rating (CYPSE (Flatsedge) [6]; 0.2500 kg/ha): 6.0
- ECHORC herbicidal effect rating ([7]; 0.0313 kg/ha): 3.0
- ECHORC herbicidal effect rating ([7]; 0.0625 kg/ha): 4.0
- ECHORC herbicidal effect rating ([7]; 0.1250 kg/ha): 5.0
- ECHORC herbicidal effect rating ([7]; 0.2500 kg/ha): 6.0
- SETVI rating (SETVI (Foxtail, Green) [8]; 0.0156 kg/ha): 0.0
- SETVI rating (SETVI (Foxtail, Green) [8]; 0.0313 kg/ha): 1.5
- SETVI rating (SETVI (Foxtail, Green) [8]; 0.0625 kg/ha): 1.5
- SETVI rating (SETVI (Foxtail, Green) [8]; 0.1250 kg/ha): 9.0
- SETVI rating (SETVI (Foxtail, Green) [8]; 0.2500 kg/ha): 9.0
- SETVI rating (SETVI (Foxtail, Green) [8]; 0.5000 kg/ha): 9.0
- TRZAWR rating ([9]; 0.0156 kg/ha): 0.0
- TRZAWR rating ([9]; 0.0313 kg/ha): 0.0
- TRZAWR rating ([9]; 0.0625 kg/ha): 0.5
- TRZAWR rating ([9]; 0.1250 kg/ha): 2.0
- TRZAWR rating ([9]; 0.2500 kg/ha): 6.5
- TRZAWR rating ([9]; 0.5000 kg/ha): 9.0
- Herbicidal rating CYPIR (CYPIR (Rice Flatsedge) [10]; Rate 0.0313 kg/ha): 0.0
- Herbicidal rating CYPIR (CYPIR (Rice Flatsedge) [10]; Rate 0.0625 kg/ha): 0.0
- Herbicidal rating CYPIR (CYPIR (Rice Flatsedge) [10]; Rate 0.1250 kg/ha): 2.0
- Herbicidal rating CYPIR (CYPIR (Rice Flatsedge) [10]; Rate 0.2500 kg/ha): 4.0
- Herbicidal rating CYPSE (CYPSE (Flatsedge) [11]; Rate 0.0313 kg/ha): 0.0
- Herbicidal rating CYPSE (CYPSE (Flatsedge) [11]; Rate 0.0625 kg/ha): 0.0
- Herbicidal rating CYPSE (CYPSE (Flatsedge) [11]; Rate 0.1250 kg/ha): 4.0
- Herbicidal rating CYPSE (CYPSE (Flatsedge) [11]; Rate 0.2500 kg/ha): 6.0
- ORYSAT herbicidal rating (ORYSAT (Rice, Tebonnet); rate 0.0158 kg/ha): 1.0
- ORYSAT herbicidal rating (ORYSAT (Rice, Tebonnet); rate 0.0313 kg/ha): 4.0
- ORYSAT herbicidal rating (ORYSAT (Rice, Tebonnet); rate 0.0625 kg/ha): 6.5
- ORYSAT herbicidal rating (ORYSAT (Rice, Tebonnet); rate 0.1250 kg/ha): 8.0
- ZEAMX herbicidal rating (ZEAMX (Corn, Field) [12]; rate 0.0158 kg/ha): 7.5
- ZEAMX herbicidal rating (ZEAMX (Corn, Field) [12]; rate 0.0313 kg/ha): 7.5
- ZEAMX herbicidal rating (ZEAMX (Corn, Field) [12]; rate 0.0625 kg/ha): 8.5
- ZEAMX herbicidal rating (ZEAMX (Corn, Field) [12]; rate 0.1250 kg/ha): 9.0
- ECHCG rating (ECHCG (Barnyardgrass); 0.0156 kg/ha): 0.0
- ECHCG rating (ECHCG (Barnyardgrass); 0.0313 kg/ha): 0.0
- ECHCG rating (ECHCG (Barnyardgrass); 0.0625 kg/ha): 0.0
- ECHCG rating (ECHCG (Barnyardgrass); 0.1250 kg/ha): 2.0
- ECHCG rating (ECHCG (Barnyardgrass); 0.2500 kg/ha): 5.5
- ECHCG rating (ECHCG (Barnyardgrass); 0.5000 kg/ha): 9.0
